The test system of this assay is amyloid precursor protein (APP) proteolysis. Nature of the assay: Repressor Release Assay (RRA). In kind it is cell-based. To be noted: Conc 20 μg/mL; luciferase activity over diluent control; read-out: APPI Fold Increase. The procedure: The beta amyloid inhibitory activity of many of the compounds of the present invention has been determined using the Repressor Release Assay (RRA). See, Table 23 below. A compound is considered active in RRA if it leads to at least a 1.5 fold increase in luciferase activity at 20 μM and is non-toxic.
The compounds generated as described in Examples 1 through 220 were tested in the RRA in accordance with published techniques [Shuey, D. J., Sheiffele, P., Jones, D., Cockett, M. I., and Quinet, E. M. (1999), “Repressor release: a useful tool for monitoring amyloid precursor protein (APP) proteolysis in mammalian cells”, Society for Neuroscience Abstracts, Vol. 25, 29th Annual Meeting of Society for Neuroscience, Miami Beach, Fla., Oct. 23-28, 1999]. Briefly, this assay is performed as follows.
CHO-K1 cells are cultured in whole DMEM media (DMEM—High Glucose with 10% fetal bovine serum, 1% Non-essential Amino Acids, and 1% Penicillin-Streptomycin) at 37° C. with 5% CO2. Two million cells are plated into 10-cm dishes 24 hrs prior to transfection.
Transient transfections are completed as recommended by Gibco BRL using their Lipofectamine Plus system. First, 6 μg of pRSVO-luc and 6 μg of APP-lacI construct DNA are added to 460 μL Opti-Mem transfection media and incubated with 30 μL Plus reagent for 15 minutes. Then, a lipid mixture of 40 μL Lipofectamine reagent and 460 μL Opti-Mem transfection media is incubated with the DNA-Plus reagent mixture for 15 minutes. During the DNA-lipid incubation, the CHO-K1 cells are washed once and covered in 5.0 mL DMEM media without Penicillin-Streptomycin. The DNA-lipid preparation is then layered onto these cells and incubated at 37° C. overnight.
One and one half million transfected cells per well (100 μL total volume) are plated into sterile, opaque Packard 96-well Cultur-Plates in clear DMEM whole media (DMEM—without phenol red) and incubated at 37° C. with 5% CO2 for 3-5 hours.
Compounds are diluted using two different protocols; one protocol is used for compounds supplied neat (weighed powder in vial) and the other protocol is used for compounds supplied in solution (20 mM in DMSO in 96-well plates). For both protocols, 25 mM Hepes and 25 mM Hepes/1% DMSO are prepared fresh to be used as diluent. The Hepes/DMSO is used as the diluent control on all experimental plates.
The following table depicts the steps for compound dilution (please note that the last step is the addition of compound to cells/media in tissue culture plate):
Because some compounds arrive in 96-well format at 20 mM, the following represents the protocol for their dilution (note that an average molecular weight of these compounds was used to calculate these dilutions and as above, the last step is the addition of compound to cells/media in tissue culture plate):
Once compounds are diluted, they are applied in duplicate on cells in tissue culture plates (prepared above). Cells are incubated with compound at 37° C. with 5% CO2 for an additional 36-48 hours.
Luciferase assays (LucLite reagent, Packard) are performed and are read on a Packard TopCount instrument. Media is removed from each 96-well plate and replaced with 100 μL PBS per well (with Mg^2+ and Ca^2+). An equal volume (100 μL) of the LucLite lysis/substrate buffer is added to each well and the plates are sealed and mixed in the dark on a rotary shaker for 15-30 minutes at room temperature. Luciferase readings are then taken on the TopCount instrument. Measurements are expressed as relative light units (RLU) and are calculated and analyzed in MS Excel as follows.
A compound is considered active in RRA if it leads to at least a 1.5 fold increase in luciferase activity at 20 μM and is non-toxic, as determined by loss of signal (≦0.75 fold increase). Fold increase is the amount of luciferase activity (measured in relative light units) over diluent control. SEM represents the standard error of the mean for fold increase (not shown).
As for `CCCCC[C@H](c1ccccc1)[C@@H](CO)NS(=O)(=O)c1ccc(Cl)s1` [Example 45, 5-chloro-N-[(1S,2R)-1-(hydroxymethyl)-2-phenylheptyl]thiophene-2-sulfonamide], the fold induction at 20 µg/mL stood at 2.1.

Take `C[C@@H](c1ccccc1)[C@@H](CO)NS(=O)(=O)c1ccc(Cl)s1` [Example 46, 5-chloro-N-[(1S,2S)-1-(hydroxymethyl)-2-phenylpropyl]thiophene-2-sulfonamide]: the fold induction at 20 µg/mL stood at 5.8. Turning to `CC(C)C[C@@H](c1ccccc1)[C@@H](CO)NS(=O)(=O)c1ccc(Cl)s1` [Example 47, 5-chloro-N-[(1S,2S)-1-(hydroxymethyl)-4-methyl-2-phenylpentyl]thiophene-2-sulfonamide], the fold induction at 20 µg/mL amounted to 5.4. Take `C[C@@H](c1ccco1)[C@@H](CO)NS(=O)(=O)c1ccc(Cl)s1` [Example 48, 5-chloro-N-[(1S,2R)-2-(2-furyl)-1-(hydroxymethyl)propyl]thiophene-2-sulfonamide]: the fold induction at 20 µg/mL stood at 4.7. Turning to `CC[C@@H](c1ccco1)[C@@H](CO)NS(=O)(=O)c1ccc(Cl)s1` [Example 49, 5-chloro-N-[(1S,2R)-2-(2-furyl)-1-(hydroxymethyl)butyl]thiophene-2-sulfonamide], the fold induction at 20 µg/mL stood at 6.1. Turning to `CC(C)C[C@@H](c1ccco1)[C@@H](CO)NS(=O)(=O)c1ccc(Cl)s1` [Example 50, 5-chloro-N-[(1S,2R)-2-(2-furyl)-1-(hydroxymethyl)-4-methylpentyl]thiophene-2-sulfonamide], the fold induction at 20 µg/mL was 7.7. As for `CCCCCC[C@@H](c1ccco1)[C@@H](CO)NS(=O)(=O)c1ccc(Cl)s1` [Example 51, 5-chloro-N-[(1S,2R)-2-(2-furyl)-1-(hydroxymethyl)octyl]thiophene-2-sulfonamide], the fold induction at 20 µg/mL was determined as 4. `CCCCCC[C@@H](C(C)C)[C@@H](CO)NS(=O)(=O)c1ccc(Cl)s1` [Example 52, 5-chloro-N-[(1S,2S)-1-(hydroxymethyl)-2-isopropyloctyl]thiophene-2-sulfonamide]: the fold induction at 20 µg/mL was determined as 7.

On to `C[C@@H](c1ccc(-c2ccccc2)cc1)[C@@H](CO)NS(=O)(=O)c1ccc(Cl)s1` [Example 53, N-[(1S,2S)-2-[1,1'-biphenyl]-4-yl-1-(hydroxymethyl)propyl]-5-chlorothiophene-2-sulfonamide], for which the fold induction at 20 µg/mL was 3.9.

On to `CC[C@@H](c1ccc(-c2ccccc2)cc1)[C@@H](CO)NS(=O)(=O)c1ccc(Cl)s1` [Example 54, N-[(1S,2S)-2-[1,1'-biphenyl]-4-yl-1-(hydroxymethyl)butyl]-5-chlorothiophene-2-sulfonamide], for which the fold induction at 20 µg/mL amounted to 3.3.

On to `CC(C)C[C@@H](c1ccc(-c2ccccc2)cc1)[C@@H](CO)NS(=O)(=O)c1ccc(Cl)s1` [Example 55, N-[(1S,2S)-2-[1,1'-biphenyl]-4-yl-1-(hydroxymethyl)-4-methylpentyl]-5-chlorothiophene-2-sulfonamide], for which the fold induction at 20 µg/mL is 1.9.

In the case of `CC(C)C[C@@H](C)[C@@H](CO)NS(=O)(=O)c1ccc(Br)s1` [Example 56, 5-bromo-N-[(1S,2R)-1-(hydroxymethyl)-2,4-dimethylpentyl]thiophene-2-sulfonamide], the fold induction at 20 µg/mL is 6.8. For the molecule `CCCCCC[C@@H](C)[C@@H](CO)NS(=O)(=O)c1ccc(Br)s1` [Example 57, 5-bromo-N-[(1S,2R)-1-(hydroxymethyl)-2-methyloctyl]thiophene-2-sulfonamide], the fold induction at 20 µg/mL is 6.4.

Consider `CCC(CC)[C@@H](CO)NS(=O)(=O)c1ccc(Br)s1` [Example 58, 5-bromo-N-[(1S)-2-ethyl-1-(hydroxymethyl)butyl]thiophene-2-sulfonamide], for which the fold induction at 20 µg/mL was 10. Regarding `CC[C@H](CC(C)C)[C@@H](CO)NS(=O)(=O)c1ccc(Br)s1` [Example 59, 5-bromo-N-[(1S,2R)-2-ethyl-1-(hydroxymethyl)-4-methylpentyl]thiophene-2-sulfonamide], the fold induction at 20 µg/mL was determined as 4.5. To `CCC[C@H](CC)[C@@H](CO)NS(=O)(=O)c1ccc(Br)s1` [Example 60, 5-bromo-N-[(1S,2S)-2-ethyl-1-(hydroxymethyl)pentyl]thiophene-2-sulfonamide] belongs 6.9; to `CCC[C@H](CC(C)C)[C@@H](CO)NS(=O)(=O)c1ccc(Br)s1` [Example 61, 5-bromo-N-[(1S,2R)-1-(hydroxymethyl)-4-methyl-2-propylpentyl]thiophene-2-sulfonamide], 5.7. On to `CCCCC[C@H](CC)[C@@H](CO)NS(=O)(=O)c1ccc(Br)s1` [Example 62, 5-bromo-N-[(1S,2S)-2-ethyl-1-(hydroxymethyl)heptyl]thiophene-2-sulfonamide], for which the fold induction at 20 µg/mL stood at 4.5. Turning to `CCCCC[C@H](CC(C)C)[C@@H](CO)NS(=O)(=O)c1ccc(Br)s1` [Example 63, 5-bromo-N-[(1S,2R)-1-(hydroxymethyl)-2-isobutylheptyl]thiophene-2-sulfonamide], the fold induction at 20 µg/mL was determined as 3.3.

As to `CCCCC[C@H](c1ccc(OC)cc1)[C@@H](CO)NS(=O)(=O)c1ccc(Br)s1` [Example 64, 5-bromo-N-[(1S,2R)-1-(hydroxymethyl)-2-(4-methoxyphenyl)heptyl]thiophene-2-sulfonamide], the fold induction at 20 µg/mL is 2.9. For `CCCCCC[C@@H](CCCCC)[C@@H](CO)NS(=O)(=O)c1ccc(Br)s1` [Example 65, 5-bromo-N-[(1S,2R)-1-(hydroxymethyl)-2-pentyloctyl]thiophene-2-sulfonamide], the fold induction at 20 µg/mL amounted to 1.9.

As for `C[C@@H](c1ccccc1)[C@@H](CO)NS(=O)(=O)c1ccc(Br)s1` [Example 66, 5-bromo-N-[(1S,2S)-1-(hydroxymethyl)-2-phenylpropyl]thiophene-2-sulfonamide], the fold induction at 20 µg/mL came to 5.3. With `CC[C@@H](c1ccccc1)[C@@H](CO)NS(=O)(=O)c1ccc(Br)s1` [Example 67, 5-bromo-N-[(1S,2S)-1-(hydroxymethyl)-2-phenylbutyl]thiophene-2-sulfonamide], the fold induction at 20 µg/mL turned out to be 4.7. The same measure for `CC(C)C[C@@H](c1ccccc1)[C@@H](CO)NS(=O)(=O)c1ccc(Br)s1` [Example 68, 5-bromo-N-[(1S,2S)-1-(hydroxymethyl)-4-methyl-2-phenylpentyl]thiophene-2-sulfonamide]: 2.3. As to `CC(C)C[C@@H](c1cccnc1)[C@@H](CO)NS(=O)(=O)c1ccc(Br)s1` [Example 69, 5-bromo-N-[(1S,2S)-1-(hydroxymethyl)-4-methyl-2-pyridin-3-ylpentyl]thiophene-2-sulfonamide], the fold induction at 20 µg/mL amounted to 1.5. To `C[C@@H](c1ccco1)[C@@H](CO)NS(=O)(=O)c1ccc(Br)s1` [Example 70, 5-bromo-N-[(1S,2R)-2-(2-furyl)-1-(hydroxymethyl)propyl]thiophene-2-sulfonamide] belongs 4.6; to `CC[C@@H](c1ccco1)[C@@H](CO)NS(=O)(=O)c1ccc(Br)s1` [Example 71, 5-bromo-N-[(1S,2R)-2-(2-furyl)-1-(hydroxymethyl)butyl]thiophene-2-sulfonamide], 5.2.

As to `CC(C)C[C@@H](c1ccco1)[C@@H](CO)NS(=O)(=O)c1ccc(Br)s1` [Example 72, 5-bromo-N-[(1S,2R)-2-(2-furyl)-1-(hydroxymethyl)-4-methylpentyl]thiophene-2-sulfonamide], the fold induction at 20 µg/mL came to 6.4. On to `CCCCCC[C@@H](c1ccco1)[C@@H](CO)NS(=O)(=O)c1ccc(Br)s1` [Example 73, 5-bromo-N-[(1S,2R)-2-(2-furyl)-1-(hydroxymethyl)octyl]thiophene-2-sulfonamide], for which the fold induction at 20 µg/mL was 1.9.

The values are drawn from patent US6878742B2, “Heterocyclic sulfonamide inhibitors of beta amyloid production” (Wyeth, priority 2000, dated 2005).
